Data as given in ChEMBL document CHEMBL1201862, “PubChem BioAssay data set” (2004).
Calls of active or inactive are those of the source.

What was measured:
[1] = target: T1, Corticotropin-releasing factor receptor 2/Corticotropin-releasing factor-binding protein (Homo sapiens, UniProt P24387+Q13324); experiment: activators of CRF receptor 2 with binding protein – uHTS hits, confirmation (AID 602473); assay type: functional; settings: read-out: EC50_Mean
T1 sequence (Q13324 whole entry): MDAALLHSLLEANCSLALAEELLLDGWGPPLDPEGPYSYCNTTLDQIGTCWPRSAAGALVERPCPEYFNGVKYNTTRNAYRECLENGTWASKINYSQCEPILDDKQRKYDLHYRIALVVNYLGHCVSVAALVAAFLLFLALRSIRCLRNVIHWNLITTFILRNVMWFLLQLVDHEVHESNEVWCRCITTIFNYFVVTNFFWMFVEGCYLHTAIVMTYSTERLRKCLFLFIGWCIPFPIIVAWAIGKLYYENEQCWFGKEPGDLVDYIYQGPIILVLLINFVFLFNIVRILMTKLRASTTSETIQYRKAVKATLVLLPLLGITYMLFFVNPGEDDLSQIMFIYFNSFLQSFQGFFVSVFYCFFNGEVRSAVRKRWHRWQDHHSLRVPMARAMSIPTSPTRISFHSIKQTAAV
T1 sequence (P24387 whole entry): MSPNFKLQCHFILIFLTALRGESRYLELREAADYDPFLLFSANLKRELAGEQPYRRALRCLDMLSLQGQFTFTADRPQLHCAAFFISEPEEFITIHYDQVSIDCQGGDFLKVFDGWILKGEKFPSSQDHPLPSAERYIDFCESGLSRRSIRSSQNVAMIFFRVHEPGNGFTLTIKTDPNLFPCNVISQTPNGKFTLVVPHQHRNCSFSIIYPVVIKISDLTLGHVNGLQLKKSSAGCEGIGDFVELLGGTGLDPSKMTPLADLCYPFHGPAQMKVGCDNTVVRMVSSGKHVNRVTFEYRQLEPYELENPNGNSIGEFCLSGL

[2] = target: T2, Aminopeptidase N (Plasmodium falciparum FcB1/Columbia, UniProt O96935); experiment: P. falciparum M1AAP inhibitors, biochemical, fluorogenic H-Leu-NHMec substrate, 1536-well (AID 1445); set-up: species or system Plasmodium falciparum 3D7, 3D7
T2 sequence (O96935 whole entry): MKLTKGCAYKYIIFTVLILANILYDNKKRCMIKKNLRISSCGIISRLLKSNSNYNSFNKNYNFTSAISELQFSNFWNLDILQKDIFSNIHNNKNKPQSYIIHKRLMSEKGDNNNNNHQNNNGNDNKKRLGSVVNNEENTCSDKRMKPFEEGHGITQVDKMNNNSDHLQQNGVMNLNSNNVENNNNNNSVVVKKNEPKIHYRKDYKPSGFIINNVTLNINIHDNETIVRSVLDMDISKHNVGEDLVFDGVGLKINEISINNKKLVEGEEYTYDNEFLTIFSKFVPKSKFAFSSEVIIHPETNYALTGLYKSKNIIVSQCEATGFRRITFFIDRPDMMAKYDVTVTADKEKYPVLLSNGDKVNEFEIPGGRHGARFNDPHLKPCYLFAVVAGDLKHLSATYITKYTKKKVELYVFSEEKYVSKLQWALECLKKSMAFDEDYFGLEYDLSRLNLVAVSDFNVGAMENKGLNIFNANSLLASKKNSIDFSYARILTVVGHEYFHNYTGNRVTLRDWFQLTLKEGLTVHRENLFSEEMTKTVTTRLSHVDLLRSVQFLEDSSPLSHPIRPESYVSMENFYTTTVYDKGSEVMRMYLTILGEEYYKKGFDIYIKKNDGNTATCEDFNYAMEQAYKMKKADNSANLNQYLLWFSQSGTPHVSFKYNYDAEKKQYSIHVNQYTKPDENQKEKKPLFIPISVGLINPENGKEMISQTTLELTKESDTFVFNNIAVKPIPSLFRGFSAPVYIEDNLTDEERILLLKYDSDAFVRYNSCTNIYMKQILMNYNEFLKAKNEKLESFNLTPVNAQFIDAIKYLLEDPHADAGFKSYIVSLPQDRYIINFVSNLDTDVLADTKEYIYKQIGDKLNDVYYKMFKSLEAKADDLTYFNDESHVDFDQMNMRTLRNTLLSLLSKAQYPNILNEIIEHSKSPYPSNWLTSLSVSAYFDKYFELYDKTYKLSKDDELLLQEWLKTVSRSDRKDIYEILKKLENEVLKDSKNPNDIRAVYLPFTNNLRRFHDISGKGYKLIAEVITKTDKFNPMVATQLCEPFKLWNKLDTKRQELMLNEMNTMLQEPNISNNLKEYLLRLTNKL

[3] = inhibitors of intracellular T. cruzi replication, confirmation, NIH3T3 host cells, beta-gal luminescence (AID 2044); assay type: functional, cell-based;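 also: intracellular parasites grown in NIH/3T3 mouse fibroblasts as host cells; luminescent beta-galactosidase reporter signal from transgenic T. cruzi replicating inside host cells; inhibitors lower the luminescence signal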
[4] = cytotoxicity toward NIH3T3 fibroblasts, dose response, counter-screen, cell-based, ATP luminescence, mouse fibroblasts (AID 2010); assay type: functional;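 also: cells exposed to compound for about 90 hours before reading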
[5] = Luminescence Cell-Based Dose Retest to Confirm Inhibitors of Cancer Stem Cells. [Related pubchem assays (depositor defined):AID2717, AID2721]; assay type: functional; settings: Homo sapiens
[6] = tested on: INS1; experiment: beta cell apoptosis inhibitors, cytokine rescue, dose response, luminescence, retest (AID 449756); assay type: functional, cell-based; settings: Rattus norvegicus;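 also: cell death triggered by IL-1 beta plus TNF-alpha plus IFN-gamma mixture; protective hits raise ATP signal compared with cytokine alone wells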
[7] = target: T3, Ubiquitin-conjugating enzyme E2 N (Homo sapiens, UniProt P61088); assay type: functional;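 also: Dose-response confirmation in a TR-FRET assay detecting UBC13-driven polyubiquitin chain formation, inhibition measured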
T3 sequence (P61088 whole entry): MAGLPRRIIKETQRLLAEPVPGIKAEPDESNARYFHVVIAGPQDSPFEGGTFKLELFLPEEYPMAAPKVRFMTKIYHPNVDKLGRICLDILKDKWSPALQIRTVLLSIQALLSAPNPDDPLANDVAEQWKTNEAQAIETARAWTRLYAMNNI

[8] = target: T4, Replicative DNA helicase DnaB (Mycobacterium tuberculosis, UniProt P9WMR3); experiment: DnaB intein splicing inhibitors, dose response, biochemical, cell-free fluorescence (AID 449749); assay type: functional
T4 sequence (P9WMR3 whole entry): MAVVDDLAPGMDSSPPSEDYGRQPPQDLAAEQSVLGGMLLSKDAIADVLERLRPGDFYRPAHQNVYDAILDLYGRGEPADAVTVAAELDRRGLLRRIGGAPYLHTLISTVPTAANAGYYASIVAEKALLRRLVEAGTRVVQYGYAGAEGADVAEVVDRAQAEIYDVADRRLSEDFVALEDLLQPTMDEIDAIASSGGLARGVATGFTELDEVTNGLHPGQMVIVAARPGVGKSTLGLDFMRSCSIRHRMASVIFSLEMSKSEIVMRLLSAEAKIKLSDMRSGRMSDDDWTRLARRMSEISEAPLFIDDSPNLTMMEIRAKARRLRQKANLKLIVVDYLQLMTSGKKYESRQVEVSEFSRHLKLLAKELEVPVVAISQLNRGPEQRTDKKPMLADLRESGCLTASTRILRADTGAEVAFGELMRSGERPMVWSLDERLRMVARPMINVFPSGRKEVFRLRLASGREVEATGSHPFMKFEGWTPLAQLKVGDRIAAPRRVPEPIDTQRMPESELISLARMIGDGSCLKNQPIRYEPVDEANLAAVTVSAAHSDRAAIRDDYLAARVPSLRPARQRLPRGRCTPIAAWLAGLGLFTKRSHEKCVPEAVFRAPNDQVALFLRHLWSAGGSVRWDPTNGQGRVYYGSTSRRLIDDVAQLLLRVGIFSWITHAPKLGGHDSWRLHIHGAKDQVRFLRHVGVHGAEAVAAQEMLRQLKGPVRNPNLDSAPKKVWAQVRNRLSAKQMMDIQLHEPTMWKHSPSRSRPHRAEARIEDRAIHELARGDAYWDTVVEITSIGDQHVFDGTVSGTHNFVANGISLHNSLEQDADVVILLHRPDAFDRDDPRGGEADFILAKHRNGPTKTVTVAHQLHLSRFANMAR

[9] = target: T5, RNA-binding protein pos-1 (Caenorhabditis elegans, UniProt G5EF15); experiment: inhibitors of POS-1/mex-3 RNA binding, dose response, biochemical, fluorescence polarization (AID 1964);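 also: purified POS-1 fused to maltose binding protein made in E. coli; potency of compounds blocking POS-1 binding to fluorescent RNA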
T5 sequence (G5EF15 whole entry): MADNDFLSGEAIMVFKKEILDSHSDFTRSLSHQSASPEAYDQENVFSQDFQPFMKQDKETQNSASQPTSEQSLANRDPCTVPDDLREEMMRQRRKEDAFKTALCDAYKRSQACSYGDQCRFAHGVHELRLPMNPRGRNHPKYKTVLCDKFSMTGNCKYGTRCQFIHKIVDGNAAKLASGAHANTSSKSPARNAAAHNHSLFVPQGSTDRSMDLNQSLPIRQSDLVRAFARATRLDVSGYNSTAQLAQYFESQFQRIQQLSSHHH

[10] = target: T6, Zinc finger protein mex-5 (Caenorhabditis elegans, UniProt Q9XUB2); experiment: MEX-5/TCR-2 RNA interaction inhibitors, dose response, biochemical, C. elegans, fluorescence polarization (AID 1960)
T6 sequence (Q9XUB2 whole entry): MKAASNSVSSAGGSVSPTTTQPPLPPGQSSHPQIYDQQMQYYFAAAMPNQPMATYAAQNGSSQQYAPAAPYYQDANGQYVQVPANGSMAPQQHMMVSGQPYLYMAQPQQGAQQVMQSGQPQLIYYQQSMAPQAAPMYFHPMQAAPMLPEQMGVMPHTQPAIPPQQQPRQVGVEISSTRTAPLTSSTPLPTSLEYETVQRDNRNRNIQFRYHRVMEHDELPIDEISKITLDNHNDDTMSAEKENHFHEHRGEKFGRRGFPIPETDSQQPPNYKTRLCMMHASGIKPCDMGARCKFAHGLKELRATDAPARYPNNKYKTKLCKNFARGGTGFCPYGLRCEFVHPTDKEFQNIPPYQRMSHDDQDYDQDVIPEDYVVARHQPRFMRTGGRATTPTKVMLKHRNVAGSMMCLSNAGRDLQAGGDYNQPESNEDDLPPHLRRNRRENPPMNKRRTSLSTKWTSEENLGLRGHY

[11] = target: T7, Protein RecA (Mycobacterium tuberculosis, UniProt P9WHJ3); experiment: Fluorescence Cell-Free Homogeneous Dose Retest to Identify Inhibitors of RecA-Intein Splicing Activity. [Related pubchem assays (depositor defined):AID2097, AID2223, AID489010, AID492950]; assay type: functional
T7 sequence (P9WHJ3 whole entry): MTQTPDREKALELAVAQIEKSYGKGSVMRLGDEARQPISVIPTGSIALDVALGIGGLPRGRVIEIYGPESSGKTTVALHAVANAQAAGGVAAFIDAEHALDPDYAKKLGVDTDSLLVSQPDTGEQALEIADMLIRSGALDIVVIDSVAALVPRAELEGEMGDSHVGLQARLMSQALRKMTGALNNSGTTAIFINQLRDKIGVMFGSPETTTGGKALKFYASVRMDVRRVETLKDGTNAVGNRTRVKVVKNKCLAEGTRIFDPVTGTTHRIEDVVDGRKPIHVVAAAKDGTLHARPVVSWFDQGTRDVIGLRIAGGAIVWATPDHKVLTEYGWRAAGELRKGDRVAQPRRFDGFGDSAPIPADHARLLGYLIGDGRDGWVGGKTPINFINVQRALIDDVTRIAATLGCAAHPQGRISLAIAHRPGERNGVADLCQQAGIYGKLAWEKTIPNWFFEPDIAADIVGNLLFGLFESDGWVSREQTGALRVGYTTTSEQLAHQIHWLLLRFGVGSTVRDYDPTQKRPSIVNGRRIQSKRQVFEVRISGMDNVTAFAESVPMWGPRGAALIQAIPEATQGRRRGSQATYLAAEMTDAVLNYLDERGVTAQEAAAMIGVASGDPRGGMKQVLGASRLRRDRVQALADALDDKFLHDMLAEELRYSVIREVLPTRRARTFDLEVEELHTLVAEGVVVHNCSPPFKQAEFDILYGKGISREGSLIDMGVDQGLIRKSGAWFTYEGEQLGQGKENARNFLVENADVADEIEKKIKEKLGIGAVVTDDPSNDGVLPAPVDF

[12] = tested on: P388; experiment: cells; assay type: functional; settings: Mus musculus
[13] = tested on: SN12K1; experiment: cells; assay type: functional; settings: Homo sapiens
[14] = tested on: P388/ADR; experiment: cells; assay type: functional; settings: Mus musculus

Compound	GI50 [12]	GI50 [13]	GI50 [14]	also measured
COc1cc(/C=C2\C(=N)N3C(=NC2=O)Sc2cc(S(C)(=O)=O)ccc23)ccc1O	–	–	–	EC50 [1]: 5.19 µM (active); IC50 [2]: 45.7 µM (active)
O=C(NC(NC(=S)Nc1ccccc1)C(Cl)(Cl)Cl)c1cccc(Cl)c1 (stereo not given)	–	–	–	EC50 [3]: 2.31 µM (active); EC50 [4]: > 60 µM (not active); AC50 [5]: 4.73 µM (active); AC50 [6]: 8.54 µM (active)
CCn1c(=O)cc(C(F)(F)F)[nH]c1=S	–	–	–	IC50 [7]: > 20 µM (inactive)
Cc1[nH][nH]c(=O)c1C(c1cc([N+](=O)[O-])ccc1O)c1c(C)[nH][nH]c1=O	–	–	–	AC50 [8]: 0.399 µM (active); EC50 [9]: 64.5 µM (active); EC50 [10]: 16.7 µM (active); EC50 [11]: 0.262 µM (active); IC50 [2]: 30.1 µM (active)
Cc1ccc(C(C(=O)NCC2CCCO2)N(C(=O)c2snc(C(N)=O)c2N)c2ccccc2F)o1 (stereo not given)	–	–	–	IC50 [7]: > 20 µM (inactive)
O=c1c2cc(Br)ccc2[nH]c(=S)n1-c1ccccc1	–	–	–	IC50 [7]: > 20 µM (inactive)
CCN1CCN(S(=O)(=O)c2ccc(Cl)c(C(=O)N(C)Cc3cccs3)c2)CC1	–	–	–	IC50 [7]: > 20 µM (inactive)
CCCCCOc1ccc(/C=N\c2ccc(CCc3ccc(/N=C/c4ccc(OCCCCC)cc4)cc3)cc2)cc1	> 100 µM (inactive)	> 100 µM (inactive)	–	–
O=C(CCN1CCCCC1)C(=Cc1ccccc1)C(=O)CCN1CCCCC1	15.6 µM (inactive)	52.4 µM (inactive)	25.9 µM (inactive)	–
C=C(C)C(=O)/N=C(\N)NC#N	3.72 µM (inactive)	26.4 µM (inactive)	10.4 µM (inactive)	–
CN(C)CCNC(=O)c1cccc2c(=O)c3ccccc3oc12	15 µM (inactive)	19.7 µM (inactive)	28 µM (inactive)	–
O=C(O)/C=C/C(=O)N1C/C(=C\c2ccccc2)C(=O)/C(=C/c2ccccc2)C1	11.9 µM (inactive)	1.82 µM (inactive)	13.8 µM (inactive)	–
COc1cc(C2c3cc4c(cc3[C@@H](Nc3ccccc3)C3COC(=O)[C@H]23)OCO4)cc(OC)c1O (stereo not given in full)	< 0.01 µM (active)	< 0.0164 µM (active)	0.0344 µM (active)	–
CSC[S+]([O-])C[C@H](CO)NC(=O)/C=C/c1c(C)[nH]c(=O)[nH]c1=O (stereo not given in full)	0.416 µM (active)	1.31 µM (inactive)	1 µM (active)	–
